# Assay results reported in patent US20220220106A1, “QUINOLINE COMPOUNDS AND PHARMACEUTICAL COMPOSITIONS AND USES THEREOF” (Academy of Military Medical Sciences, priority 2019, published 2022).
# Test system: RD cells
# Assay: Detection of cytotoxicity in RD cells (CellTiter-Glo)
# Format: cell-based
# Conditions: 4 days, CellTiter-Glo, median toxic dose
# Summary of the method: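 RD cells (1*10^5/mL) cultured 4 days at 37 °C with 10 compound concentrations from 3-fold dilution of a 400 μM pretreatment solution, final being 0.5 times that. Viability by CellTiter-Glo luminescence versus cell control; TD50 from S-curve fit; SI=TD50/IC50.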
row,Structure (SMILES),TD50 [µM]
1,"CCCC(=O)Nc1ccc(-c2ccc3ncc4ccc(=O)n(-c5cccc(C(F)(F)F)c5)c4c3c2)cn1 [HTL-7-05, 9-[3-(6-butyrylamino)pyridyl]-2-oxo-1-[3-(trifluoromethyl)phenyl]-1,2-dihydrobenzo[h][1,6]naphthyridine]",0.75 ± 0.36
2,"O=C(Cc1ccccc1)Nc1ccc(-c2ccc3ncc4ccc(=O)n(-c5cccc(C(F)(F)F)c5)c4c3c2)cn1 [HTL-7-10, 9-[3-(6-phenylacetylamino)pyridyl]-2-oxo-1-[3-(trifluoromethyl)phenyl]-1,2-dihydrobenzo[h][1,6]naphthyridine]",0.74 ± 0.72
3,"CC(C)(C)OC(=O)Nc1ccc(-c2ccc3ncc4ccc(=O)n(-c5cccc(C(F)(F)F)c5)c4c3c2)cn1 [HTL-7-21, 9-[3-(6-tert-butoxycarbonylamino)pyridyl]-2-oxo-1-[3-(trifluoromethyl)phenyl]-1,2-dihydrobenzo[h][1,6]naphthyridine]",0.69 ± 0.50
4,"O=c1ccc2cnc3ccc(-c4ccc(N5CCCC5)nc4)cc3c2n1-c1cccc(C(F)(F)F)c1 [HTL-7-20, 9-[3-(6-pyrrolidinyl)pyridyl]-2-oxo-1-[3-(trifluoromethyl)phenyl]-1,2-dihydrobenzo[h][1,6]naphthyridine]",1.79 ± 0.67
5,"Nc1cccc(Nc2ccc3ncc4ccc(=O)n(-c5cccc(C(F)(F)F)c5)c4c3c2)n1 [HTL-6-12, 9-[2-(6-aminopyridyl)]imino-2-oxo-1-[3-(trifluoromethyl)phenyl]-1,2-dihydrobenzo[h][1,6]naphthyridine]",5.19 ± 0.56
6,"Cc1ncccc1-c1ccc2ncc3ccc(=O)n(-c4cccc(C(F)(F)F)c4)c3c2c1 [HTL-6-49, 9-[3-(2-methyl)pyridyl]-2-oxo-1-[3-(trifluoromethyl)phenyl]-1,2-dihydrobenzo[h][1,6]naphthyridine]",0.07 ± 0.00
7,"O=C(Nc1ccc(-c2ccc3ncc4ccc(=O)n(-c5cccc(C(F)(F)F)c5)c4c3c2)cn1)Oc1ccccc1 [HTL-7-15, 9-[3-(6-phenoxyamido)pyridyl]-2-oxo-1-[3-(trifluoromethyl)phenyl]-1,2-dihydrobenzo[h][1,6]naphthyridine]",0.20 ± 0.09
8,"O=c1ccc2cnc3ccc(-c4ccc(N5CCOCC5)nc4)cc3c2n1-c1cccc(C(F)(F)F)c1 [HTL-7-18, 9-[3-(6-morpholin-4-yl)pyridyl]-2-oxo-1-[3-(trifluoromethyl)phenyl]-1,2-dihydrobenzo[h][1,6]naphthyridine]",2.91 ± 1.16
9,"CCCCC(=O)Nc1ccc(-c2ccc3ncc4ccc(=O)n(-c5cccc(C(F)(F)F)c5)c4c3c2)cn1 [HTL-7-08, 9-[3-(6-valerylamino)pyridyl]-2-oxo-1-[3-(trifluoromethyl)phenyl]-1,2-dihydrobenzo[h][1,6]naphthyridine]",0.70 ± 0.48
10,"O=C1Cc2cc(-c3ccc4ncc5ccc(=O)n(-c6cccc(C(F)(F)F)c6)c5c4c3)ccc2N1 [HTL-7-04, 9-[5-(2-oxo)indolyl]-2-oxo-1-[3-(trifluoromethyl)phenyl]-1,2-dihydrobenzo[h][1,6]naphthyridine]",10.27 ± 7.81
11,"Nc1cccc(Nc2ccc3ncc4ccc(=O)n(-c5cccc(C(F)(F)F)c5)c4c3c2)c1 [HTL-6-11, 9-(3-aminophenyl)imino-2-oxo-1-[3-(trifluoromethyl)phenyl]-1,2-dihydrobenzo[h][1,6]naphthyridine]",7.58 ± 1.24
12,"CN(C)c1ccc(-c2ccc3ncc4ccc(=O)n(-c5cccc(C(F)(F)F)c5)c4c3c2)cn1 [HTL-7-16, 9-[3-(6-N,N-dimethyl)pyridyl]-2-oxo-1-[3-(trifluoromethyl)phenyl]-1,2-dihydrobenzo[h][1,6]naphthyridine]",0.17 ± 0.06
13,"O=C(Nc1ccc(-c2ccc3ncc4ccc(=O)n(-c5cccc(C(F)(F)F)c5)c4c3c2)cn1)OCc1ccccc1 [HTL-7-14, 9-[3-(6-benzyloxyamido)pyridyl]-2-oxo-1-[3-(trifluoromethyl)phenyl]-1,2-dihydrobenzo[h][1,6]naphthyridine]",1.00 ± 0.81
